Legend:
Format in all cases: cell-based
[1] = target: T1, alpha2A receptor (Homo sapiens, UniProt P08913); test: Receptor Selection and Amplification Technology (RSAT) assay, alpha2A; conditions: RSAT; for EC50: transfected NIH-3T3 cells, value outside brackets, read-out: Alpha 2A EC50 (potency); for Alpha 2A intrinsic activity (efficacy): ratio of maximal effect to that of standard full agonist brimonidine (UK14304), value in brackets
T1 construct: expressed in transfected cells; host or cells: NIH-3T3 cells
T1 sequence (P08913 1-465): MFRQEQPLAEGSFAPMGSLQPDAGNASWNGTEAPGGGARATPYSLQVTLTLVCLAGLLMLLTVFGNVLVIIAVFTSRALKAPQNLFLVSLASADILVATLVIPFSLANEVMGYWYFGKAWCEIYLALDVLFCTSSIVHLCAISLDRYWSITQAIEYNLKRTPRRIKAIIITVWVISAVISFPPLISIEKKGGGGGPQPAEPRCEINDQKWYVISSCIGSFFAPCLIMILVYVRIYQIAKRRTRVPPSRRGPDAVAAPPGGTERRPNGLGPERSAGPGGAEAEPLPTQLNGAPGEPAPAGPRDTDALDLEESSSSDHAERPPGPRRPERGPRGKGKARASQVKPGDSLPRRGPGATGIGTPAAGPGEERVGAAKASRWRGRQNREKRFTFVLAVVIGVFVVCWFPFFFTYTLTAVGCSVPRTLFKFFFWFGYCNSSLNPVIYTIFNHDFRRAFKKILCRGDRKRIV
Description: (§1) Receptor Selection and Amplification Technology (RSAT) Assay
(§2) The RSAT assay measures a receptor-mediated loss of contact inhibition that results in selective proliferation of receptor-containing cells in a mixed population of confluent cells. The increase in cell number is assessed with an appropriate transfected marker gene such as β-galactosidase, the activity of which can be easily measured in a 96-well format. Receptors that activate the G protein, Gq, elicit this response. Alpha2 receptors, which normally couple to Gi, activate the RSAT response when coexpressed with a hybrid Gq protein that has a Gi receptor recognition domain, called Gq/i5.
(§3) NIH-3T3 cells are plated at a density of 2×10^6 cells in 15 cm dishes and maintained in Dulbecco's modified Eagle's medium supplemented with 10% calf serum. One day later, cells are cotransfected by calcium phosphate precipitation with mammalian expression plasmids encoding p-SV-β-galactosidase (5-10 μg), receptor (1-2 μg) and G protein (1-2 μg). 40 μg salmon sperm DNA may also be included in the transfection mixture. Fresh media is added on the following day and 1-2 days later, cells are harvested and frozen in 50 assay aliquots. Cells are thawed and […] added to 100 aliquots of various concentrations of drugs in triplicate in 96-well dishes. Incubations continue 72-96 hr at 37° C. After washing with phosphate-buffered saline, β-galactosidase enzyme activity is determined by adding 200 μl of the chromogenic substrate (consisting of 3.5 mM o-nitrophenyl-β-D-galactopyranoside and 0.5% nonidet P-40 in phosphate buffered saline), incubating overnight at 30° C. and measuring optical density at 420 nm. The absorbance is a measure of enzyme activity, which depends on cell number and reflects a receptor-mediated cell proliferation. The efficacy or intrinsic activity is calculated as a ratio of the maximal effect of the drug to the maximal effect of a standard full agonist for each receptor subtype. Brimonidine, also called UK14304, the chemical structure of which is shown below, is used as the standard agonist for the alpha2A, alpha2B and alpha2C receptors. The EC50 is the concentration at which the drug effect is half of its maximal effect.
(§4) EC50 values are nanomolar. ND stands for “not determinable” at concentrations less than 10 micromolar. IA stands for “intrinsic activity.”

[2] = target: T2, alpha2B receptor (Homo sapiens, UniProt P18089); test: Receptor Selection and Amplification Technology (RSAT) assay, alpha2B; conditions: RSAT; for EC50: transfected NIH-3T3 cells, value outside brackets, read-out: Alpha 2B EC50 (potency); for Alpha 2B intrinsic activity (efficacy): ratio of maximal effect to that of standard full agonist brimonidine (UK14304), value in brackets
T2 construct: expressed in transfected cells; host or cells: NIH-3T3 cells
T2 sequence (P18089 1-450): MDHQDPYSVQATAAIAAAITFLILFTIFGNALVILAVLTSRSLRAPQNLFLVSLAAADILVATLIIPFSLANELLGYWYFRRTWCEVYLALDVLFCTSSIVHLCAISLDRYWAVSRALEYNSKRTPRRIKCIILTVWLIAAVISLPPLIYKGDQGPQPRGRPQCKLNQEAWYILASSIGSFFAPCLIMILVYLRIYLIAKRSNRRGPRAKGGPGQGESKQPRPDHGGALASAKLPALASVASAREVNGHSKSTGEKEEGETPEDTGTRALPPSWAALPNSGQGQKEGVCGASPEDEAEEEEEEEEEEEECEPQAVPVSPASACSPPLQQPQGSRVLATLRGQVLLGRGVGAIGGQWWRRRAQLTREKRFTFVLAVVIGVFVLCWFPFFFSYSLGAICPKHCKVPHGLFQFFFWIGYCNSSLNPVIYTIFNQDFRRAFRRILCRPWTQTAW
Description: as §1, §2, §3, §4

[3] = target: T3, alpha2C receptor (Homo sapiens, UniProt P18825); test: Receptor Selection and Amplification Technology (RSAT) assay, alpha2C; conditions: RSAT; for EC50: transfected NIH-3T3 cells, value outside brackets, read-out: Alpha 2C EC50 (potency); for Alpha 2C intrinsic activity (efficacy): ratio of maximal effect to that of standard full agonist brimonidine (UK14304), value in brackets
T3 construct: expressed in transfected cells; host or cells: NIH-3T3 cells
T3 sequence (P18825 1-462): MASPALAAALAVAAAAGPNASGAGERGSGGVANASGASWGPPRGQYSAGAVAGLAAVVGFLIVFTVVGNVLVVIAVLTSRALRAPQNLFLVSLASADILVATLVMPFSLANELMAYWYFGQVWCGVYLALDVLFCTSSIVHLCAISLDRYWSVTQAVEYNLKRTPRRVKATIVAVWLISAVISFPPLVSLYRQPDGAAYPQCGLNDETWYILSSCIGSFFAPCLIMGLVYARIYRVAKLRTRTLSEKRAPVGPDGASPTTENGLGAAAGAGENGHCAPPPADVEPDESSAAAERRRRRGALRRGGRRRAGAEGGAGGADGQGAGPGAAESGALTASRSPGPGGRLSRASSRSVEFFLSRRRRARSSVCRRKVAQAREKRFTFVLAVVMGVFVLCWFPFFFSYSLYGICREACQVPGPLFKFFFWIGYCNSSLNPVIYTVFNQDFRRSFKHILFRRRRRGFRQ
Description: as §1, §2, §3, §4

| SMILES | EC50 [1] [nM] | Alpha 2A intrinsic activity (efficacy) [1] | EC50 [2] [nM] | Alpha 2B intrinsic activity (efficacy) [2] | EC50 [3] [nM] | Alpha 2C intrinsic activity (efficacy) [3] |
| --- | --- | --- | --- | --- | --- | --- |
| Fc1c(Cl)cccc1C(c1cccnc1)c1cnc[nH]1 (stereo not shown) [3-((3-chloro-2-fluorophenyl)(1H-imidazol-5-yl)methyl)pyridine] | > 10000 | 0.28 | 5.2 | 1.34 | 64 | 0.55 |
| Fc1cccc(C(c2cccnc2)c2c[nH]cn2)c1Cl (stereo not shown) | 3370 | 0.32 | 4.8 | 0.98 | 88 | 0.87 |
| Cc1c(F)cccc1C(c1ccncc1)c1c[nH]cn1 (stereo not shown) [4-((3-fluoro-2-methylphenyl)(1H-imidazol-5-yl)methyl)pyridine] | > 10000 | 0.03 | 72 | 1.17 | > 10000 | 0.27 |
| Cc1cccc(C(c2ccccn2)c2c[nH]cn2)c1C (stereo not shown) [2-((2,3-dimethylphenyl)(1H-imidazol-4-yl)methyl)pyridine] | 1930 | 0.39 | 0.92 | 1.22 | 356 | 0.64 |
| CC(C)c1ccc(C(c2c[nH]cn2)c2cccc(F)c2Cl)s1 (stereo not shown) | – | 0.06 | 75 | 0.40 | – | 0.23 |
| Fc1c(C(c2cccnc2)c2c[nH]cn2)cccc1C(F)(F)F (stereo not shown) [3-((2-fluoro-3-(trifluoromethyl)phenyl)(1H-imidazol-5-yl)methyl)pyridine] | > 10000 | 0.23 | 5.2 | 1.24 | 32 | 0.42 |
| Cc1c(Cl)cccc1C(c1ccccn1)c1c[nH]cn1 (stereo not shown) | > 10000 | 0.12 | 7.8 | 1.39 | 495 | 0.53 |
| Cc1ccccc1C(c1ccncc1)c1c[nH]cn1 (stereo not shown) [4-((2-methylphenyl)(1H-imidazol-5-yl)methyl)pyridine] | > 10000 | 0.06 | 63 | 0.82 | 265 | 1.08 |
| c1ccc(C(c2ccccn2)c2c[nH]cn2)cc1 (stereo not shown) [2-((phenyl)(1H-imidazol-5-yl)methyl)pyridine] | > 10000 | 0.04 | 469 | 0.87 | > 10000 | 0.09 |
| Fc1cccc(C(c2cccnc2)c2c[nH]cn2)c1F (stereo not shown) [3-((2,3-difluorophenyl)(1H-imidazol-5-yl)methyl)pyridine] | > 10000 | 0.05 | 68 | 0.93 | 656 | 0.85 |
| Cc1c(F)cccc1C(c1ccccn1)c1c[nH]cn1 (stereo not shown) [2-((3-fluoro-2-methylphenyl)(1H-imidazol-5-yl)methyl)pyridine] | > 10000 | 0.04 | 36 | 1.07 | 440 | 0.38 |
| Fc1ccccc1C(c1ccncc1)c1c[nH]cn1 (stereo not shown) [4-((2-fluorophenyl)(1H-imidazol-5-yl)methyl)pyridine] | > 10000 | 0.04 | 350 | 0.78 | 365 | 0.48 |
| Clc1cccc(C(c2cccnc2)c2c[nH]cn2)c1Cl (stereo not shown) | 605 | 0.37 | 1.62 | 1.15 | 112 | 0.87 |

Reference: patent US20100273814A1, “((PHENYL)IMIDAZOLYL)METHYLHETEROARYL COMPOUNDS” (priority 2007, published 2010)
